# Source: patent publication US10086335B2, “Composition and method for biofouling inhibition of membrane separation device” (Ecolab USA Inc., priority 2013, dated 2018)
# Key:
# [1] = Total chlorine and free chlorine concentration by DPD method; format: physicochemical; conditions: for free chlorine (FRC) concentration: sulfamic acid:sodium hypochlorite 1.2:1, pH >12
# From the text: The total chlorine concentration (amount) can be detected according to the following method. The combined chlorine can oxidize the iodide into iodine. The iodine and free chlorine can react with DPD (N,N-Diethyl-p-phenylenediamine) to form a red substance, and which can be used to represent the concentration of the total chlorine (using the absorbance obtained at 530 nm measurement to represent the concentration of total chlorine). The above free chlorine concentration (amount) may be determined by the following method. The free chlorine which may exist in the form of hypochlorous acid or ions of hypochlorite can react with DPD (N, N-Diethyl-p-phenylenediamine) indicator rapidly to form a pink-colored substance, and the strength of such color can be used to indicate the amount of free chlorine, for example the concentration of free chlorine is determined by the measurements of absorbance on 530 nm. The combined chlorine concentration in water is calculated by subtracting free chlorine concentration from total chlorine concentration (i.e., TRC-FRC). In the present invention, TRC and FRC are measured for example by HACH DR2800 spectrophotometer.
# In order to further reduce the FRC, the second stabilizer ammonium sulfate was used in the present example. In the present example, 67 g sodium hypochlorite and 13 g sulfamic acid (sulfamic acid ≥99.5%, AR, Sinopharm Chemical Reagent Co. Ltd.) were first added to 20 g water. The molar ratio between sulfamic acid and sodium hypochlorite was 1.2 to 1. Then the pH was adjusted to more than 12 by sodium hydroxide. According to the addition amount of sodium hypochlorite, the different molar ratios of second stabilizer ammonium sulfates were added. After the solution was uniformly mixed, DPD and iodine were used to determine the TC concentration and DPD was used to determine the FRC concentration.
# In the present example, the second stabilizer ammonium sulfate was used in dilute solution to research the reducing effect on FRC. In the present example, 67 g sodium hypochlorite and 13 g sulfamic acid (sulfamic acid ≥99.5%, AR, Sinopharm Chemical Reagent Co. Ltd.) were first added to 3020 g water. The molar ratio between sulfamic acid and sodium hypochlorite was 1.2 to 1. Comparing to the concentration of the sodium hypochlorite and sulfamic acid of the example 1, that of the example 2 was diluted to about 30 times. Then the pH was adjusted to more than 12 by sodium hydroxide. According to the addition amount of sodium hypochlorite, the different molar ratios of second stabilizer ammonium sulfates were added. After the solution was mixed uniformly, DPD and iodine were used to determine the TC concentration and DPD was used to determine the FRC concentration.
# [2] = system: floating bacteria in water; assay: Bactericidal effect on the bacteria in water (Total Bacteria Count); conditions: raw water; total chlorine 2 ppm and 10 ppm; 3 hours and 24 hours; FIG. 3
# Description: This example is mainly focused on using the present method or combination to inhibit the floating bacteria in water. The raw water without adding any biocides was used as the control group. The total chlorine concentration in water was controlled at 2 ppm and 10 ppm, separately. Sodium hypochlorite and two kinds of stabilizers were added to the raw water and sample obtained was used as the experimental group (dual stabilizers). Moreover, the group wherein only sodium hypochlorite was added was the control experimental group 1 (Cl2) and the group wherein sodium hypochlorite and one stabilizer were added to the raw water was the control experimental group 2 (single stabilizer). In the control experimental group 1 and 2, the total chlorine concentrations were controlled at 2 ppm and 10 ppm, separately. The addition method of the above substances and the substances used were identical to the examples 1 or 2. […] After placing the control group, the control experimental group 1, 2 and the experimental group for 3 hours and 24 hours, the number of the bacteria in the water of these samples were determined and compared. The bacterial number was indicated by the Total Bacteria Count (sometimes abbreviated as TBC in the following description), which was determined by referencing the method of 3M™ Petrifilm™ Aerobic Count Plates.
Compound,"free chlorine (FRC) concentration ([1]; concentrated solution, 0.3 moles second stabilizer per 1 mole sodium hypochlorite, reduced from 1200 ppm, FIG. 1)","effect on total chlorine ([1]; concentrated solution, 0.3 moles second stabilizer per 1 mole sodium hypochlorite, FIG. 1)","free chlorine (FRC) concentration ([1]; dilute solution, 0.4 moles second stabilizer per 1 mole sodium hypochlorite, reduced from about 50 ppm, FIG. 2)","effect on total chlorine amount ([1]; dilute solution, 0.4 moles second stabilizer per 1 mole sodium hypochlorite, FIG. 2)",bactericidal effect (Total Bacteria Count) [2]
"N.N.O=S(=O)(O)O [second stabilizer, ammonium sulfate]",about 40 ppm,without affecting the total chlorine,about 20 ppm,without affecting the total chlorine amount,–
OCl [sodium hypochlorite],–,–,–,–,strongest bactericidal effect
